90 compounds from a melting point compilation (Tetko et al.; mined from patent text by program, amines drawn as free bases though some values may be those of a salt) can be followed below.

The structures appear in SMILES notation.

Usually melting point stands for the temperature, or range, at which the solid turns liquid. In turn, `CC(O)(C=Cc1ccc(S(=O)(=O)c2ccncc2)cc1)C(F)(F)F` (stereo not given) came in with a melting point of 168 to 171 °C.

For `CCC(=O)NCC1CC1c1cccc2nc(C)sc12` (stereo not given), the melting point was in the range of 59 to 61 °C.

Consider `COC(=O)C#CC(=O)c1ccc(OC)c(OC)c1OC`, for which the melting point is 74 °C.

The compound `CN1C(c2cnc3ccccc3c2)c2ccccc2CC1(C)C` (stereo not given) came in with a melting point of 116 to 118 °C.

For the compound `Cc1ccccc1C(=O)Nc1ccc(C(=O)N2Cc3ccccc3Cc3ccccc32)cc1`, the melting point was in the range of 198 to 203 °C.

Consider `NCC(=O)OCc1ccc([N+](=O)[O-])cc1`, for which the melting point was in the range of 45 to 50 °C.

The compound `Cn1ccc2c3c(c(I)cc21)C(=O)NC3=O` gave a melting point of 322 to 325 °C.

In turn, `CC1(C)OC[C@H](c2cnc(NC(=O)C(C)(C)C)cn2)O1` gave a melting point of 142 to 143 °C.

The compound `COc1ccccc1N1CCN(CC(Cc2ccccc2)C(=O)O)CC1` (stereo not given) registered a melting point of 155 to 158 °C.

With `O=C(O)c1cnc2n(c1=O)CCc1cc(O)c(O)cc1-2`, the melting point lay within 308 to 314 °C.

`COC(=O)c1ccc(OCC2COC(=O)N2c2ccc(Cl)cc2)cc1` (stereo not given) gave a melting point of 135 to 136 °C.

With `O=C(CCc1ccc2cccc(O)c2n1)NO`, the melting point fell in the range of 165 to 167 °C.

The compound `CC1(C)CCC(C)(C)c2cc(-c3cc(-c4ccc(CO)cc4)ccc3-c3ccccc3)ccc21` gave a melting point of 134 to 136 °C.

`C=CCN1CCN(c2cc3c(cc2F)c(=O)c(C(=O)O)cn3CC)CC1` returned a melting point of 236 °C.

As to `N#Cc1ccc(N2CCC(CCO)CC2)c2ccccc12`, the melting point lay within 128 to 129 °C.

As for `CCOP(=O)(CNc1cc(Oc2ccc(C(F)(F)F)cn2)ccc1[N+](=O)[O-])OCC`, the melting point was in the range of 74 to 76 °C.

On to `CC(C)n1nc(OCc2ccc3ccccc3n2)cc1CO`, for which the melting point lay within 137 to 138 °C.

On to `COC(=O)CCCNC(=O)CNS(=O)(=O)c1ccc2ccccc2c1`, for which the melting point was in the range of 187 to 189 °C.

As to `CC(=O)Nc1c(CC(=O)O)cccc1C(=O)c1ccccc1`, the melting point fell in the range of 188 to 190 °C.

Take `CN=C1SCN(Cc2ccccc2)C(=O)N1C`: the melting point was in the range of 93 to 95 °C.

With `O=C(O)C=CC=CCCCCCc1cccc2cncn12`, the melting point was in the range of 120 to 122 °C.

`Cc1cc(Br)n2ccnc2c1` came in with a melting point of 53 to 54 °C.

`CC(C)C(NC(=O)OCc1csc(N2CCCC2)n1)C(=O)NN(C(=O)OCc1cncs1)C(Cc1ccccc1)CC(O)CCc1ccccc1` (stereo not given) had a melting point of 165 to 167 °C.

Take `Cc1cn(C(C)C(=O)N(C)C)nc1-c1ccc(Cl)cc1` (stereo not given): the melting point lay within 99.5 to 101 °C.

In turn, `NC(=S)c1cnn(-c2c(Cl)cc(C(F)(F)F)cc2Cl)n1` displayed a melting point of 214 to 218 °C.

As for `O=C1Nc2ccc(O)cc2Sc2ccccc21`, the melting point is 265 to 267 °C.

With `COc1cc(C(=O)N2CCC(CCN3CCC(Nc4nc5ccccc5n4Cc4ccccn4)CC3)(c3ccc(F)cc3)C2)cc(OC)c1OC` (stereo not given), the melting point lay in the range of 110 to 119 °C.

For `C=CC(=O)OCCCCCCOc1ccc(C=O)cc1`, the melting point worked out at 30 °C.

`CC(=O)NC1CCN(c2cccc(Br)n2)CC1` returned a melting point of 158 to 160 °C.

With `COc1ccc(/C=C/C#N)cc1OC`, the melting point is 93 to 98 °C.

The compound `CC(C)CC(=O)Nc1cccc(-c2ccnc3c(C(=O)c4ccsc4)cnn23)c1` registered a melting point of 137 to 139 °C.

`O=C(Nc1ccc(C(=O)N2Cc3ccccc3Cc3ccccc32)cc1)c1ccc(Cl)c(Cl)c1` gave a melting point of 212 to 215 °C.

As for `CCOC(=O)C(NC(=O)C[N+](=O)[O-])C(=O)OCC`, the melting point fell in the range of 118 to 121 °C.

With `O=C(Nc1ccc(Br)cn1)C(CC1CCCC1)c1ccc(Cl)c([N+](=O)[O-])c1` (stereo not given), the melting point was in the range of 128 to 130 °C.

With `CON1CCCNC1=C[N+](=O)[O-]`, the melting point was in the range of 84 to 85 °C.

`COc1ccc2[nH]c(C)c(Cc3cc(=O)n(C4CCCCC4)[nH]3)c2c1` showed a melting point of 99 to 101 °C.

`O=C1OCC(C(F)(F)F)N1c1nc(-c2ccc(Br)cc2)cs1` (stereo not given) had a melting point of 154 to 156 °C.

`N#CCN1CCOC(c2ccccc2)(c2ccccc2)CC1` displayed a melting point of 119 to 121 °C.

With `CCC(=O)c1ccc2c(c1)OC(c1ccccc1)(c1ccccc1)O2`, the melting point fell in the range of 69 to 70.5 °C.

In turn, `COc1ccc2c(c1)c1c(n2CCc2noc(-c3ccccc3)n2)CCN(C)C1` yielded a melting point of 77.5 to 79 °C.

`Nc1nc(NCCN2CCCCC2)nc(-c2cc(Cl)ccc2Cl)n1` returned a melting point of 179 to 181 °C.

The compound `COc1ccc(OC)c(Sc2ncccc2C(=O)NCC23CC4CC(CC(C4)C2)C3)c1` yielded a melting point of 135 to 136 °C.

The compound `Nc1cc(C(=O)O)cc(OCc2ccccc2)c1-c1ccccc1` had a melting point of 161 to 162 °C.

The compound `N#Cc1cc2c(s1)CCCC2NC=O` (stereo not given) registered a melting point of 131 to 134 °C.

Compound `Cc1ccc(S(=O)(=O)NCC(CC(C)C)NS(=O)(=O)c2ccc(C)cc2)cc1` (stereo not given) gave a melting point of 138 to 140 °C.

For the compound `Cc1cc(N2CCC3(CC2)OCCO3)nn2cnnc12`, the melting point was 156 to 157 °C.

Regarding `Cc1[nH]c(-c2ccccc2)nc1C(=O)C=CN(C)C`, the melting point is 218 to 222 °C.

For the compound `CCCn1c(=O)c2nc(CC(C)c3ccccc3)[nH]c2n(CCC)c1=O` (stereo not given), the melting point lay within 136 to 137 °C.

In the case of `O=C(CI)Oc1cccc2c1C(=O)c1cn3c(c1C2=O)Cc1ccccc1C3`, the melting point was > 260 °C.

Compound `CCOC(=O)c1cc2c(Cl)cc(Cl)cc2[nH]1` displayed a melting point of 180 °C.

As for `CCCOc1ccc(S(=O)(=O)N2CCN(Cc3ccccc3)CC2)cc1-c1nc2cc(Cl)c([N+](=O)[O-])cc2c(=O)[nH]1`, the melting point fell in the range of 198 to 200 °C.

`O=C(CC(=O)C1CC1)c1cccnc1` showed a melting point of 69 to 70 °C.

Take `c1ccc(N(Cc2ccc(OCOc3ccc(CN(c4ccccc4)c4ccccc4)cc3)cc2)c2ccccc2)cc1`: the melting point was 99 to 100 °C.

The compound `CC(C)Nc1cccnc1N1CCN(C(=O)c2ccc(C(=O)N3CCN(CCOCCO)CC3)cc2)CC1` gave a melting point of 92 to 93 °C.

On to `COC(=O)NC(C)c1cccc(-c2ccc(OC)cc2)c1` (stereo not given), for which the melting point was in the range of 117 to 119 °C.

In the case of `CCOC(=O)c1c(COc2nccn2C)nc2cc(OC)c(OC)cc2c1-c1ccc(OC)c(OC)c1`, the melting point lay in the range of 151 to 152 °C.

With `CCC(C)c1ccc2c(c1)C1(O)C(=O)c3ccccc3C1(O)O2` (stereo not given), the melting point lay in the range of 134 to 136 °C.

For `N#CCC(=O)c1cccc(Oc2ccccc2)c1`, the melting point fell in the range of 95 to 96 °C.

With `COC(=O)CC1NC(=O)c2ccccc21` (stereo not given), the melting point is 136 to 138 °C.

Consider `CCOC(=O)c1cc(OCC)c(OCC)cc1[N+](=O)[O-]`, for which the melting point fell in the range of 53 to 54 °C.

On to `COc1ccc(N2CCN(c3c(C)c(C)c4c(c3C)C(O)(c3ccc(OC(F)(F)F)cc3)C(C)(C)O4)CC2)cc1` (stereo not given), for which the melting point was in the range of 175 to 176 °C.

In the case of `CC(C)c1nc(C(O)(C(F)(F)F)C(F)(F)F)[nH]c1-c1ccccc1`, the melting point lay in the range of 80 to 81 °C.

`CCOC(=O)C1=CC2(CCC1S(=O)(=O)Nc1ccc(F)cc1Cl)OCCO2` (stereo not given) had a melting point of 117 to 119 °C.

For `CCN(CC)CCNC(=O)c1cc(N)cc(C)c1OC`, the melting point lay in the range of 56 to 57 °C.

As for `O=C1c2ccccc2C(=O)N1CCc1ccc(C=Cc2ccccc2)cc1`, the melting point lay in the range of 212 to 215 °C.

The compound `CC(C)(C)OC(=O)N1CCn2c(Cl)c(-c3cccc(C#N)c3)c(C(=O)O)c2C1` returned a melting point of 208 to 210 °C.

For `Cc1c(F)c(N2CCC(N)C2)c(C)c2c1c(=O)c(C(=O)O)cn2C1CC1` (stereo not given), the melting point was in the range of 96 to 98 °C.

In turn, `O=C(Nc1ccc2nc(CN3CCCC3)ccc2c1)c1ccc(-c2ccc(F)cc2)nc1` had a melting point of 210 °C.

For the compound `CCOC(=O)c1c(C(F)(F)F)nc(C(F)F)c(C(=O)OC)c1OCC`, the melting point was in the range of 59 to 61 °C.

`COC(=O)c1ccc2nc(C(C)C)c(C(C)C)nc2c1` registered a melting point of 53 to 55 °C.

Regarding `O=C(CCC1CCN(Cc2ccccc2)CC1)c1ccc(N2CCCC2)cc1`, the melting point was in the range of 144 to 145 °C.

With `CCOC(=O)c1c(C)nc2c(cnn2CCC(C)CC)c1N` (stereo not given), the melting point was 217 to 222 °C.

For the compound `COc1ccc(-c2nc(-c3ccc(OCCO)cc3O)nc(-c3ccc(OCCO)cc3OCCO)n2)cc1`, the melting point is 172 °C.

As for `FC(F)(F)c1ccn(-c2ccnc(Cl)n2)n1`, the melting point is 111 to 112 °C.

As for `CC(c1cccc2c1C(=O)NS2(=O)=O)[Si](C)(C)C` (stereo not given), the melting point fell in the range of 123 to 125 °C.

The compound `CC(C)(C)OC(=O)c1cccc(NC(N)=O)c1` had a melting point of 230 to 232 °C.

The compound `CC(C)(C)OC(=O)N1CC=C(c2ccc(Br)cc2)CC1` yielded a melting point of 68 to 70 °C.

Regarding `COc1cc(C(=O)N2Cc3ccc(C(=O)NCc4cccc(C(F)(F)F)c4)n3Cc3ccccc32)ccc1-c1ccccc1C`, the melting point lay within 176 to 177 °C.

On to `CC(=O)OC1CSC(Oc2ccc(-c3ccncc3)cc2F)C(OC(C)=O)C1OC(C)=O` (stereo not given), for which the melting point worked out at 179 °C.

The compound `O=C(O)CCCc1cc2nc(C(F)(F)F)ccc2n1S(=O)(=O)c1ccc2c(c1)OCCO2` registered a melting point of 158 °C.

Compound `CCOC(=O)c1cc2c(Cl)c(OC)c(OC)cc2s1` displayed a melting point of 124 to 126 °C.

Compound `O=c1[nH]sc2c1c(=O)c1cc(F)c(F)c(F)c1n2C1CC1` showed a melting point of 243 to 245 °C.

For the compound `Cc1c(Cl)cccc1S(=O)(=O)Nc1ccc2ncncc2c1`, the melting point was > 270 °C.

Take `CCOC(=O)c1cc(=O)c(O)c(-c2ccc(O)cc2)o1`: the melting point was 228 to 232 °C.

`COc1ccc(CNc2nc(Cl)ccc2C=O)cc1Cl` came in with a melting point of 134 to 138 °C.

As for `CCCc1cc(C(O)(CC)CC)ccc1-c1cc(OCc2ccc(CO)c(CO)c2)ccc1CC`, the melting point was found to be 101 °C.

In turn, `Cc1cccc2nc3c(cc12)oc1cccc(Cl)c13` had a melting point of 169 to 172 °C.

For the compound `O=C(C=Cc1cccc(S(=O)(=O)Nc2ccc3ccccc3c2)c1)NO`, the melting point came out at 164 °C.

Compound `CC(C)Oc1ccc(-c2nc3n(c2-c2ccncc2)CCC3)cc1` registered a melting point of 148 to 150 °C.

In turn, `CC(C)C1(n2cccn2)CN(C(=O)O)N=C1c1ccc(F)cc1` (stereo not given) yielded a melting point of 125 °C.
